Laboratory results taken from the supplement of paper PMC11208160.

Test: recombinant barcode read abundance after kanamycin selection (control-corrected) (log10(CPM+1)); higher = more efficient recombination; sequences stand for … in AGTGCAGAGAAAATCGGCCAGTTTTCTCTGCCTGCAGTCCGCATGCCGT…AGATTTATGCAGCGGACTGCCTTTCTCCCAAAGTGATAAACCGGACAGTATCATGGACCGGTTTTCCCGGTAATCCGTATTTGCAAGGTTGGTTTCACT; site = the 11-nt target
Method in brief: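 Oligos holding a promoter, target, barcode and the J23119-driven first 104 bases of the bridge RNA were Gibson-cloned into a vector that supplied the other 73 bp plus a T7-inducible recombinase. This library was co-electroporated with a donor plasmid into E. coli. Two replicates went on chloramphenicol/ampicillin LB agar (control) and two on chloramphenicol/ampicillin/kanamycin with 0.1 mM IPTG. Recombination efficiency is read from averaged, control-corrected barcode counts per million at recombinant junctions, reported as log10(CPM+1).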
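Note: IS621 recombinase and bridge RNA in Escherichia coli cells.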

Sequence	recombinant barcode read abundance (log10)
GGTGGCCCTTGGGTTCTAACCTGTTGCCT (site GCTGGCCCTAG)	0.22
GGTGGCCCTTGGGTTCTAACCTGTTGCCT (site GGTGGCCCTAG)	1.08
GGTGGCCCTTGGGTTCTAACCTGTTGCCT (site GTTGGCCCTAG)	0.296
GGTGGGGCTTGGGTTCTAACCTGTTGCTG (site GGTGGGGCTCA)	2.24
GGTGGGGCTTGGGTTCTAACCTGTTGCTG (site GGTTGAGCTCA)	0.536
GGTGGTCCTTGGGTTCTAACCTGTTGCCT (site GGTGGTCCTAG)	1.36
GGTGGTCCTTGGGTTCTAACCTGTTGCCT (site GGTTGTCCTAG)	0.178
GGTTACCCTTGGGTTCTAACCTGTTGCGG (site GGTAACCCTCC)	0.716
GGTTACCCTTGGGTTCTAACCTGTTGCGG (site GGTCACCCTCC)	1.62
GGTTACCCTTGGGTTCTAACCTGTTGCGG (site GGTGACCCTCC)	0.115
GGTTACCCTTGGGTTCTAACCTGTTGCGG (site GGTTACCCTCC)	2.08
GGTTAGTCTTGGGTTCTAACCTGTTGCCG (site ACGGCTACTAA)	0.147
GGTTAGTCTTGGGTTCTAACCTGTTGCCG (site GGTTAGTCTCG)	0.363
GGTTGAGCTTGGGTTCTAACCTGTTGCTG (site GGTGGGGCTCA)	0.0323
GGTTGAGCTTGGGTTCTAACCTGTTGCTG (site GGTTGAGCTCA)	0.642
GGTTGGCCTTGGGTTCTAACCTGTTGCGG (site GGTTGACCTCC)	0.257
GGTTGGCCTTGGGTTCTAACCTGTTGCGG (site GGTTGCCCTCC)	0.0622
GGTTGGCCTTGGGTTCTAACCTGTTGCGG (site GGTTGGCCTCC)	0.624
GGTTGGCCTTGGGTTCTAACCTGTTGCGG (site GGTTGTCCTCC)	0.15
GGTTGGGCTTGGGTTCTAACCTGTTGCAG (site GGCTGGGCTCG)	0.0851
GGTTGGGCTTGGGTTCTAACCTGTTGCAG (site GGTTGGGCTCT)	1.46
GTAACCTCTTGGGTTCTAACCTGTTGCCT (site GTAACCTCTAG)	1.92
GTAACCTCTTGGGTTCTAACCTGTTGCCT (site GTAACCTCTCG)	1.15
GTAACCTCTTGGGTTCTAACCTGTTGCCT (site GTAACCTCTGG)	0.0952
GTAACCTCTTGGGTTCTAACCTGTTGCCT (site GTAACCTCTTG)	0.0654
GTAAGAACTTGGGTTCTAACCTGTTGCAG (site GTAAGAACTCT)	1.78

Sequence	recombinant barcode read abundance (log10)
GTAAGAACTTGGGTTCTAACCTGTTGCAG (site GTAAGTCCTCT)	0.544
GTAAGGACTTGGGTTCTAACCTGTTGCGG (site CAGTCAGCTAG)	0.115
GTAAGGACTTGGGTTCTAACCTGTTGCGG (site GTAAGGACTCC)	2.25
GTAAGTTCTTGGGTTCTAACCTGTTGCCT (site GAAAGTTCTAG)	0.049
GTAAGTTCTTGGGTTCTAACCTGTTGCCT (site GCAAGTTCTAG)	0.258
GTAAGTTCTTGGGTTCTAACCTGTTGCCT (site GGAAGTTCTAG)	0.0929
GTAAGTTCTTGGGTTCTAACCTGTTGCCT (site GTAAGTTCTAG)	1.11
GTAATAGCTTGGGTTCTAACCTGTTGCAT (site ATAATAGCTAT)	0.695
GTAATAGCTTGGGTTCTAACCTGTTGCAT (site GTAATAGCTAT)	2
GTAATCCCTTGGGTTCTAACCTGTTGCCG (site GTAATCCCTCG)	1.76
GTAATCCCTTGGGTTCTAACCTGTTGCCG (site GTAATCCCTTG)	0.572
GTAATTGCTTGGGTTCTAACCTGTTGCCT (site GTAAATGCTAG)	0.184
GTAATTGCTTGGGTTCTAACCTGTTGCCT (site GTAACTGCTAG)	0.519
GTAATTGCTTGGGTTCTAACCTGTTGCCT (site GTAAGTGCTAG)	0.0962
GTAATTGCTTGGGTTCTAACCTGTTGCCT (site GTAATTGCTAG)	0.918
GTACAATCTTGGGTTCTAACCTGTTGCAG (site CATAGTCCTTG)	0
GTACAATCTTGGGTTCTAACCTGTTGCAG (site GTACAATCTCT)	0.632
GTACGACCTTGGGTTCTAACCTGTTGCAC (site AACAAGACTAG)	0.189
GTACGACCTTGGGTTCTAACCTGTTGCAC (site GTACGACCTGT)	1.91
GTACGTACTTGGGTTCTAACCTGTTGCCT (site ATACGTACTAG)	0.0704
GTACGTACTTGGGTTCTAACCTGTTGCCT (site CTACGTACTAG)	0.283
GTACGTACTTGGGTTCTAACCTGTTGCCT (site GTACGTACTAG)	0.586
GTACGTACTTGGGTTCTAACCTGTTGCCT (site TTACGTACTAG)	0.777
GTACGTCCTTGGGTTCTAACCTGTTGCGT (site GTACGTCCTAA)	0.0527
GTACGTCCTTGGGTTCTAACCTGTTGCGT (site GTACGTCCTAC)	2.36
GTACGTCCTTGGGTTCTAACCTGTTGCGT (site GTACGTCCTAG)	0.0549

Sequence	recombinant barcode read abundance (log10)
GTACGTCCTTGGGTTCTAACCTGTTGCGT (site GTACGTCCTAT)	0.764
GTAGACCCTTGGGTTCTAACCTGTTGCCG (site GTAGACCCTCG)	2.32
GTAGACCCTTGGGTTCTAACCTGTTGCCG (site GTTGACCCTAG)	0.476
GTATCCGCTTGGGTTCTAACCTGTTGCCA (site CGGCTGCCTCC)	0.0649
GTATCCGCTTGGGTTCTAACCTGTTGCCA (site GTATCCGCTTG)	1.55
GTATGAGCTTGGGTTCTAACCTGTTGCCA (site GTATGAGCTTG)	0.906
GTATGAGCTTGGGTTCTAACCTGTTGCCA (site TTATAAGCTTG)	0.0331
GTATGAGCTTGGGTTCTAACCTGTTGCGG (site GTATGAGCTCC)	2.06
GTATGAGCTTGGGTTCTAACCTGTTGCGG (site GTATGTGCTCC)	0.255
GTATGCTCTTGGGTTCTAACCTGTTGCGT (site GTATCCTCTAT)	0.11
GTATGCTCTTGGGTTCTAACCTGTTGCGT (site GTATGCTCTAC)	1.17
GTCAACCCTTGGGTTCTAACCTGTTGCGG (site GTAAACCCTCC)	0.886
GTCAACCCTTGGGTTCTAACCTGTTGCGG (site GTCAACCCTCC)	2.33
GTCAAGACTTGGGTTCTAACCTGTTGCCG (site GTCAAGACTCG)	1.94
GTCAAGACTTGGGTTCTAACCTGTTGCCG (site GTCAAGACTTG)	0.462
GTCAAGCCTTGGGTTCTAACCTGTTGCTA (site GCCAAACCTTA)	0.345
GTCAAGCCTTGGGTTCTAACCTGTTGCTA (site GTCAAGCCTTA)	0.705
GTCACGCCTTGGGTTCTAACCTGTTGCAT (site GACACACCTAT)	0.0978
GTCACGCCTTGGGTTCTAACCTGTTGCAT (site GTCACGCCTAT)	0.588
GTCACTACTTGGGTTCTAACCTGTTGCCG (site GTCACTACTCG)	0.74
GTCACTACTTGGGTTCTAACCTGTTGCCG (site GTCCCTACTCG)	0.0387
GTCACTACTTGGGTTCTAACCTGTTGCCG (site GTCGCTACTCG)	0.0416
GTCACTACTTGGGTTCTAACCTGTTGCCG (site GTCTCTACTCG)	0.127
GTCAGCCCTTGGGTTCTAACCTGTTGCTG (site GACAGCCCTCA)	0.379
GTCAGCCCTTGGGTTCTAACCTGTTGCTG (site GTCAGCCCTCA)	0.255
